Here are results for one compound from patent publication US7098340B2, “Benzyl sulfonamide derivatives” (Warner Lambert Company LLC, priority 2003, dated 2006).

For the assay, the target named is T1, androgen receptor (Homo sapiens, UniProt P10275).
T1 sequence (P10275 1-920 Q868H): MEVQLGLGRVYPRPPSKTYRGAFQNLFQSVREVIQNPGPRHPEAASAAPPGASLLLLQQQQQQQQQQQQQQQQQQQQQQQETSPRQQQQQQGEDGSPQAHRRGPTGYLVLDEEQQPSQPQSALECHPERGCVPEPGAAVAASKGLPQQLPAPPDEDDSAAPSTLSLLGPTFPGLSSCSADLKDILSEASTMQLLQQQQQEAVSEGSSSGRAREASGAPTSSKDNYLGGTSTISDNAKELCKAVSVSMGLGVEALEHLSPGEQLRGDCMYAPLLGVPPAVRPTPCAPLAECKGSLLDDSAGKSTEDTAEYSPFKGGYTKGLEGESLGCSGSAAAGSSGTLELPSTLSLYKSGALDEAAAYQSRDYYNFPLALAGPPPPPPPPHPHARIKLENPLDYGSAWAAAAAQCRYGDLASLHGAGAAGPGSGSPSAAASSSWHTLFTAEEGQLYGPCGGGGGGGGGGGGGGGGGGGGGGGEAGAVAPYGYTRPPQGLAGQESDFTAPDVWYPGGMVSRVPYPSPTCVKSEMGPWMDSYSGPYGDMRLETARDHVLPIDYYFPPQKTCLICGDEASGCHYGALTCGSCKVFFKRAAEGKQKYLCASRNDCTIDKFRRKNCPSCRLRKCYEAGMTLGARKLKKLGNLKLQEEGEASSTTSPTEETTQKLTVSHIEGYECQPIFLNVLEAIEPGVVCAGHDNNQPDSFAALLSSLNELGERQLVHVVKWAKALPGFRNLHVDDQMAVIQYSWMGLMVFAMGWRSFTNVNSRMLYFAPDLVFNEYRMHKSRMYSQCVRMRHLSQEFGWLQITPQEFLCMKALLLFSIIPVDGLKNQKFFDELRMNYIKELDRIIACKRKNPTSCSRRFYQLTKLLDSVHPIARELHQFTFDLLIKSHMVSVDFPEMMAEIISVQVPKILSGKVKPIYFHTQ
As to the kind of experiment: AR Antagonist Cell Assay (MMTV-luciferase reporter, DHT-stimulated). To be noted: MDA-MB453-MMTV clone 54-19 cells; antagonism of 100 pM DHT, 17 hr, luciferase readout. The class given is cell-based. The essentials:
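MDA-MB453 cells stably carrying MMTV-ARE-firefly luciferase, in 1% charcoal-treated serum, preincubated 30 min with compound (10 uM or 1 uM) then stimulated with 100 pM DHT for 17 h at 37° C. Luminescence read; result as % inhibition of DHT fold induction.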

Molecules are shown by their SMILES.

In turn, `O=c1cc(C(F)(F)F)c2cc(Cc3ccc(S(=O)(=O)NCc4ccccc4Sc4ccccc4CO)cc3)ccc2[nH]1` [Example 94, N-[2-(2-Hydroxymethyl-phenylsulfanyl)benzyl]-4-(2-oxo-4-trifluoromethyl-1,2-dihydroquinolin-6-ylmethyl)-benzenesulfonamide] displayed an IC50 of more than 10 µM.
